Experimental data: US20220031684A1, “PROPHYLACTIC EFFICACY OF SEROTONIN 4 RECEPTOR AGONISTS AGAINST STRESS” (THE TRUSTEES OF COLUMBIA UNIVERSITY IN THE CITY OF NEW YORK, priority 2019, published 2022)

Tests used:
Type in all cases: in vivo
129S6/SvEv mice [1] = experiment: 3-shock contextual fear conditioning (CFC); conditions: for freezing at re-exposure to the training context (learned fear) vs saline: re-exposure 5 days later
Method: (§1) This chronic CORT elevation dysregulates the hypothalamic-pituitary-adrenal axis (HPA) in a manner similar to that observed in clinical depression. The dose and duration of CORT treatment was selected based on previous studies. CORT (35 μg/ml, equivalent to about 5 mg/kg/day) dissolved in 0.45% hydroxypropyl-o-cyclodextrin (0-CD) or vehicle (VEH) (0.45% j-CD) was available ad libitum in the drinking water in opaque bottles to protect it from light. VEH- and CORT-treated water was changed every 3 days to prevent possible degradation. Contextual Fear Conditioning (CFC): A 3-shock CFC procedure was administered as previously published. Briefly, mice were placed into context A and administered 3 2-s shocks (0.75 mA) at 180 s, 240 s or 300 s following placement into context A. Mice were removed from the context 15 s following the termination of shock (at 317 s). For context retrieval, mice were placed back into context A for 300 s. Electrophysiology: Electrophysiology was conducted as previously described. Statistical Analysis: Results from data analyses are expressed as means±SEM. Alpha was set to 0.05 for all analyses. Data were analyzed using GraphPad Prism v7.0 or v8.0. For all experiments, unless otherwise noted, one- or two-way ANOVAs with repeated-measures were applied to the data as appropriate. Significant main effects and/or interactions were followed by Fisher's PLSD post hoc analysis or unpaired t-tests. Drugs: All drugs were prepared in physiological saline and all injections were administered intraperitoneally (i.p.) in volumes of 0.1 cc per […] body weight unless otherwise noted. Fluoxetine hydrochloride (Flx): Flx (BioTrend Chemicals AG, BG197, Zurich, Germany) was administered in the drinking water (18 mg/kg/day) for 3 weeks before the start of CORT. […] (R,S)-ketamine (K): (R,S)-ketamine (Ketaset III, Ketamine HCl injection, Fort Dodge Animal Health, Fort Dodge, Iowa) was administered in a single dose at 30 mg/kg of body weight 1 week before the start of CFC. […] PF-04995274: PF-04995274 (Sigma, Catalog No. 1331782-27-4, St. Louis, Mo.) was administered a single dose at 3 or 10 mg/kg of body weight 1 week before the start of CFC. PF-04995274 was dissolved in saline using an ultrasonic homogenizer (BioLogics, Model 3000, Manassas, Va.). Osmotic minipump implantation: ALZET osmotic minipumps (Model 2004, […], 28 days) were implanted subcutaneously under isoflurane anesthesia as previously described [S2]. Osmotic minipumps were rotated under the skin two to three times per week. Behavioral Assays: All experiments were approved by the Institutional Animal Care and Use Committee (IACUC) at the New York Psychiatric Institute (NYSPI). Elevated Plus Maze (EPM): Testing was performed as previously described [S3]. Briefly, the maze is a plus-cross-shaped apparatus consisting of four arms, two open and two enclosed by walls, linked by a central platform at a height of 50 cm from the floor. Mice were individually placed in the center of the maze facing an open arm and were allowed to explore the maze for 5 min. The time spent in and the number of entries into the open arms was used as an anxiety index. Videos were scored using ANY-maze behavior tracking software (Stoelting, Wood Dale, Ill.). Novelty-Suppressed Feeding: The NSF is a conflict test that elicits competing motivations: the drive to eat and the fear of venturing into the center of a brightly lit arena. The latency to feed is used as an index of anxiety-like behavior, because classical anxiolytic drugs decrease this measure. The NSF test was carried out during an 8 min period as previously described [S3]. Briefly, the testing apparatus consisted of a plastic box (50×50×20 cm), the floor of which was covered with approximately 2 cm of bedding. For 129S6/SvEv experiments, mice were food restricted for 12 h. For the C57BL/6N experiments, mice were food restricted for 24 h. […]

129S6/SvEv mice [2] = experiment: Novelty-suppressed feeding (NSF) after CFC
Method: as §1

C57BL/6NTac mice = experiment: Novelty-suppressed feeding (NSF) in CORT model; conditions: male C57BL/6NTac; Flx 18 mg/kg/day or RS-67,333 1.5 mg/kg/day for 3 weeks prior to CORT
Method: (§2) This chronic CORT elevation dysregulates the hypothalamic-pituitary-adrenal axis (HPA) in a manner similar to that observed in clinical depression. The dose and duration of CORT treatment was selected based on previous studies. CORT (35 μg/ml, equivalent to about 5 mg/kg/day) dissolved in 0.45% hydroxypropyl-o-cyclodextrin (0-CD) or vehicle (VEH) (0.45% j-CD) was available ad libitum in the drinking water in opaque bottles to protect it from light. VEH- and CORT-treated water was changed every 3 days to prevent possible degradation. Contextual Fear Conditioning (CFC): A 3-shock CFC procedure was administered as previously published. Briefly, mice were placed into context A and administered 3 2-s shocks (0.75 mA) at 180 s, 240 s or 300 s following placement into context A. Mice were removed from the context 15 s following the termination of shock (at 317 s). For context retrieval, mice were placed back into context A for 300 s. Electrophysiology: Electrophysiology was conducted as previously described. Statistical Analysis: Results from data analyses are expressed as means±SEM. Alpha was set to 0.05 for all analyses. Data were analyzed using GraphPad Prism v7.0 or v8.0. For all experiments, unless otherwise noted, one- or two-way ANOVAs with repeated-measures were applied to the data as appropriate. […] Videos were scored using ANY-maze behavior tracking software (Stoelting, Wood Dale, Ill.). […]

129S6/SvEv mice [3] = experiment: Open field (OF) after CFC
Method: as §2, with “appropriate. Significant main effects and/or interactions were followed by Fisher's PLSD post hoc analysis or unpaired t-tests. Drugs: All drugs were prepared in physiological saline and all injections were administered intraperitoneally (i.p.) in volumes of 0.1 cc per […] body weight unless otherwise noted. Fluoxetine hydrochloride (Flx): Flx (BioTrend Chemicals AG, BG197, Zurich, Germany) was administered in the drinking water (18 mg/kg/day) for 3 weeks before the start of CORT. […] (R,S)-ketamine (K): (R,S)-ketamine (Ketaset III, Ketamine HCl injection, Fort Dodge Animal Health, Fort Dodge, Iowa) was administered in a single dose at 30 mg/kg of body weight 1 week before the start of CFC.” for “appropriate.”

[4] = FIG. 3 cohort, FIG. 3M, Fisher's PLSD

## CCCCN1CCC(CCC(=O)c2cc(Cl)c(N)cc2OC)CC1.Cl [RS-67,333, 1-(4-amino-5-chloro-2-methoxyphenyl)-3-[1(n-butyl)-4-piperidinyl]-1-propanone HCl]
129S6/SvEv mice [1]; FIG. 3 cohort, Fisher's PLSD
  p, CFC Training Freezing (min 4), Saline vs. RS67333 (10 mg/kg): 0.0040
  p, CFC Training Freezing (min 5), RS67333 (1.5 mg/kg) vs. RS67333 (10 mg/kg): 0.0492
  p, CFC Training Freezing (min 5), Saline vs. RS67333 (1.5 mg/kg): 0.0117
  p, CFC Training Freezing (min 5), Saline vs. RS67333 (10 mg/kg): <0.0001
  p, CFC Training freezing (min 2), RS67333 (1.5 mg/kg) vs. RS67333 (10 mg/kg): 0.9854
  p, CFC Training freezing (min 2), Saline vs. RS67333 (1.5 mg/kg): 0.8966
  p, CFC Training freezing (min 2), Saline vs. RS67333 (10 mg/kg): 0.8719
129S6/SvEv mice [1]; female 129S6/SvEv, 1.5 or 10 mg/kg vs saline, 5 days after CFC
  freezing at re-exposure to the training context: comparable levels of freezing
129S6/SvEv mice [1]; female 129S6/SvEv, single injection 1 week before CFC, 1.5 or 10 mg/kg vs saline
  freezing during CFC training: comparable levels of freezing
129S6/SvEv mice [1]; male 129S6/SvEv, single i.p. injection 1 week before CFC, 30 mg/kg
  freezing during CFC training vs saline: significantly less freezing
129S6/SvEv mice [1]; male 129S6/SvEv, single i.p. injection 1 week before CFC, 1.5 mg/kg
  freezing at re-exposure to the training context (learned fear) vs saline: significantly less freezing
129S6/SvEv mice [1]; male 129S6/SvEv, single i.p. injection 1 week before CFC, 10 mg/kg
  freezing at re-exposure to the training context (learned fear) vs saline: significantly less freezing
129S6/SvEv mice [2]; FIG. 2M, t-test
  p, NSF Latency of feed, Saline vs. RS67333 (10 mg/kg): 0.0108
129S6/SvEv mice [2]; FIG. 2N, t-test
  p, NSF Food Eaten (g), Saline vs. RS67333 (10 mg/kg): 0.3871
129S6/SvEv mice [2]; FIG. 2O, t-test
  p, NSF Body Weight, Saline vs. RS67333 (10 mg/kg): 0.8829
129S6/SvEv mice [2]; [4]
  p, NSF Latency to feed (sec), RS67333 (1.5 mg/kg) vs. RS67333 (10 mg/kg): 0.0820
  p, NSF Latency to feed (sec), Saline vs. RS67333 (10 mg/kg): 0.0010
129S6/SvEv mice [2]; FIG. 3 cohort, FIG. 3M, Fisher's PLSD, p cell empty
  significance (* column), NSF Latency to feed (sec), Saline vs. RS67333 (1.5 mg/kg): ns
129S6/SvEv mice [2]; female 129S6/SvEv, 10 mg/kg
  latency to feed (NSF): significantly reduced latency to feed
129S6/SvEv mice [2]; male 129S6/SvEv, 10 mg/kg
  latency to approach the pellet (NSF) vs saline: significantly reduced latency
C57BL/6NTac mice
  latency to approach the food pellet (NSF) vs CORT+Veh: significantly decreased latency
129S6/SvEv mice [3]; FIG. 2I, t-test
  p, OF Time in Center, Saline vs. RS67333 (10 mg/kg): 0.2475
129S6/SvEv mice [3]; female 129S6/SvEv, 1.5 or 10 mg/kg
  time spent in the center of the OF: did not alter
129S6/SvEv mice [3]; male 129S6/SvEv, 10 mg/kg
  time in the center of the OF arena vs saline: comparable amount of time
